Assay results taken from patent publication US11726079B2, “Lighting systems and methods of using lighting systems for in vitro potency assay for Photofrin” (Concordia Laboratories, Inc., priority 2012, dated 2023).
“And” between values parts separate entries of the source, which are not always exact repeats. Equal values may be shown once. Marks after values point to notes of the source that are not given here.

Tested on: A549 human lung carcinoma cells
Test: In vitro potency assay for Photofrin®: A549 cells, 4 h drug absorption, wash, 10 min irradiation at 400-650 nm, 24 h, XTT viability, 4PL EC50
Type: cell-based
Set-up: key to EC50-XTT / EC50 STD / EC50 Test: EC50 as Photofrin concentration in μg/mL (4PL inflection point)
Conditions: for EC50 Test / Black plate EC50 / EC50 STD: in µg/mL; for Black plate EC50: black plate with black lid; for Clear Plate EC50: clear 96-well plate; for Potency of Test Sample / Potency of Test Sample, Mean / Experimental Potency: ratio EC50(standard)/EC50(test); for Potency of Test Sample / Potency of Test Sample, Mean: expected 0.5; for EC50 STD: standard sample (70 μg/mL high test drug concentration)
Procedure: Cell passaging of A549 cells is performed using fixed seeding densities to reduce assay variation resulting from cell culture conditions. […] Working in very low light conditions, Photofrin® is reconstituted in normal saline to 2.5 mg/mL and diluted further in culture medium at twice the desired final assay concentration, typically 140 μg/mL. A series of two-fold dilutions were then prepared from the 140 μg/mL solution and the diluted drug was added to the cells at 1:1 (v/v) according to the diagram shown in FIG. 11.
[…] The plate is then removed from the incubator, the drug is aspirated, the wells are washed with Dulbecco's phosphate buffered saline (DPBS) and fresh, pre-warmed medium is added to the wells. […] […] The wells covered with foil strips are important controls for the activity of Photofrin® in the absence of irradiation and the effect of light on the cells in the absence of drug.
The optical absorbance of the wells in column 1 (high drug concentration, no cells) is evaluated for absorption at 450 nm to ensure that the drug is not interfering with the XTT assay. The percent viability of each of the wells in columns 2-9 and 11 is calculated relative to the mean value of column 10 (cell control, no drug, no light). For each dose response obtained, a four parameter logistic (4PL) nonlinear regression analysis is performed of the percent viability versus the log-Photofrin® concentration. The point of inflection of the regression curve (C value) is defined as the EC50 and used in the calculation of relative potency. Curve fitting and calculation of the EC50 is performed with Softmax v5.4.2 (Molecular Devices, Inc.) or Prism v.5.04 (GraphPad, Software Inc.) software. The mean percent viability of columns 9 and 11 is also calculated.
• 1. Materials and Reagents • 1.1. A549 Human Lung Carcinoma (ATCC—Cat. No.: CCL-185) • 1.2. 25 cm^2 Flasks (Corning—Cat. No.: 431463, or equivalent) • 1.3. 75 cm^2 Flasks (Corning—Cat. No.: 431464, or equivalent) • 1.4. 50 mL tubes (Fisher Scientific—Cat. No. 17-512F, or equivalent) • 1.5. Hemacytometer • 1.6. RPMI-1640 (+) phenol red (Lonza—Cat. No.: 12-167F, or equivalent) • 1.7. HI-FBS (Gibco—Life Technologies—Cat No.: 10082-147, or equivalent) • 1.8. 200 mM L-Glutamine (Lonza—Cat. No.: 17-605E, or equivalent) • 1.9. 0.25% Trypsin-EDTA (Gibco—Cat. No.: 25200-056, or equivalent) • 2. Instruments • 2.1. Forma Scientific centrifuge with swinging bucket rotor (Model 5682, or equivalent) • 2.2. Water bath set at 37° C. • 2.3. […] Prepared Reagents • 3.1. RPMI-1640 Complete Media • 3.1.1. 500 mL bottle of RPMI-1640 basal media containing phenol red • 3.1.2. Add 50 mL HI-FBS • 3.1.3. Add 5.5 mL of 200 mM L-Glutamine • 4. Procedure • 4.1. Remove one vial of A549 lung carcinoma cells from liquid nitrogen storage and after ensuring that the vial is tightly closed, rapidly thaw vial by holding all but the top of the vial submerged in a 37° C. water bath until the vial contents begins to thaw but while ice still remains. • 4.2. Liberally spray the vial with 70% ethanol, wipe with tissue, and place into a laminar flow hood. • 4.3. Transfer the contents of the vial to a 50 mL conical tube containing 9 mL RPMI-1640 complete medium containing phenol red (Step 3.1) (hereafter referred to as complete medium in this method). • 4.4. Centrifuge the tube in a swing bucket rotor set at 1200 RPM (220 RCF) for five minutes at room temperature. • 4.5. Discard supernatant and gently flick the tube to resuspend the cells in the residual volume left in the tube. • 4.6. Add 5 mL complete medium, transfer the cell solution to a 25 cm^2 flask, and then place the flask into a 37° C. incubator with 5% CO2. • 4.7. Monitor the flask daily and when the cells reach approximately 80% confluence, remove the media, and wash the cells by adding 2 mL DPBS to the flask. Ensure that all cells are rinsed and discard the DPBS. • 4.8. Add 1 mL 0.25% trypsin-EDTA to prewash the cells, tip flask to coat all cells, and discard the trypsin. • 4.9. […]

[1] = seeding density 0.8 × 10^4 cells/well
[2] = seeding density 1.2 × 10^4 cells/well
[3] = seeding density 1.9 × 10^4 cells/well

EC50 Test (Test sample of theoretical potency 0.5): 21.3 and 21.7
EC50 Test (Test sample of theoretical potency 2): 5.16
EC50 Test (Test sample of theoretical potency 4 (dissolved in one-fourth the nominal volume), confidence interval wide due to poor curve fitting): 2.36*
Test Sample EC50 (Test sample, 35 μg/mL high test concentration regressed as if 70 μg/mL, Plate 1 (placement Standard, Test; left to right dilution; controls in columns 9-11)): 21.2 µg/mL
Test Sample EC50 (Test sample, 35 μg/mL high test concentration regressed as if 70 μg/mL, Plate 2 (placement Test, Standard; left to right dilution; controls in columns 9-11)): 22.2 µg/mL
Test Sample EC50 (Test sample, 35 μg/mL high test concentration regressed as if 70 μg/mL, Plate 3 (right to left dilution; controls in columns 9-11)): 21.5 µg/mL
Test Sample EC50 (Test sample, 35 μg/mL high test concentration regressed as if 70 μg/mL, Plate 4 (placement Standard, Test; left to right dilution; controls in columns 9-11)): 21.5 µg/mL
Test Sample EC50 (Test sample, 35 μg/mL high test concentration regressed as if 70 μg/mL, Plate 5 (left to right dilution; controls in columns 2-4)): 20.1 µg/mL
Test Sample EC50, Mean (Test sample, 35 μg/mL high test concentration regressed as if 70 μg/mL, mean across Plates 1-5 of positional analysis): 21.3 µg/mL
Black plate EC50 (experiment PIN-004, nine point dose response 250-0.977 μg/m): 8.08
Black plate EC50 (experiment PIN-008, six point dose response 30.0-1.09 μg/mL): 10.1 and 9.48 and 9.59
Black plate EC50, Mean (black plate, mean of PIN-004 and PIN-008 values): 9.31 µg/mL
Clear Plate EC50 (experiment PIN-004, nine point dose response 250-0.977 μg/m, in µg/mL (unit assumed)): 1.87
Clear Plate EC50 (experiment PIN-008, six point dose response 30.0-1.09 μg/mL, in µg/mL (unit assumed)): 2.49 and 2.46 and 2.33
Clear Plate EC50, Mean (clear plate, mean of PIN-004 and PIN-008 values): 2.29 µg/mL
EC50-XTT (experiment PIN-009, XTT endpoint, in µg/mL (unit assumed)): 9.48 and 9.42
EC50-XTT, Mean (experiment PIN-009, XTT endpoint, mean): 9.45 µg/mL
EC50 STD (assayed with Test sample of theoretical potency 0.25): 11.6
EC50 STD (assayed with Test sample of theoretical potency 2): 10.6
EC50 STD (assayed with Test sample of theoretical potency 4): 10.3
Substance: porfimer sodium [Photofrin®]
Potency of Test Sample (A549 cells at passage P10): 0.556
Potency of Test Sample (A549 cells at passage P17): 0.526
Potency of Test Sample (Inter-operator Assay, AB-1): 0.465
Potency of Test Sample (Inter-operator Assay, AB-2): 0.564
Potency of Test Sample, Mean (Inter-operator Assay, mean of operator AB plates): 0.515
Potency of Test Sample, Mean (Inter-operator Assay, mean of operator KP plates): 0.487
Potency of Test Sample (Inter-operator Assay, operator KP, both plates KP-1): 0.470 and 0.503
Potency of Test Sample (absorption time 3.5 hours): 0.533
Potency of Test Sample (absorption time 4.0 hours): 0.507
Potency of Test Sample (absorption time 4.5 hours): 0.573
Potency of Test Sample (irradiation time 8 minutes): 0.490
Potency of Test Sample (irradiation time 9 minutes): 0.476
Potency of Test Sample (irradiation time 10 minutes): 0.487
Potency of Test Sample (irradiation time 11 minutes): 0.555
Potency of Test Sample (irradiation time 12 minutes): 0.514
Potency of Test Sample (operator AB Pilot Assay-1): 0.411
Potency of Test Sample (operator AB Pilot Assay-2): 0.537
Potency of Test Sample (post-irradiation incubation time 22 hours): 0.549
Potency of Test Sample (post-irradiation incubation time 24 hours): 0.54
Potency of Test Sample (post-irradiation incubation time 26 hours): 0.575
Potency of Test Sample (post-irradiation temperature 35° C.): 0.448
Potency of Test Sample (post-irradiation temperature 37° C. (nominal, two experiments)): 0.543 and 0.495
Potency of Test Sample (post-irradiation temperature 39° C.): 0.516
Potency of Test Sample [1]: 0.521
Potency of Test Sample [2]: 0.391
Potency of Test Sample [3]: 0.526
Experimental Potency (theoretical potency 0.5): 0.526 and 0.516
Experimental Potency (theoretical potency 2): 2.05
Experimental Potency (theoretical potency 4, wide confidence interval on EC50): 4.36*
Mean Potency (ratio of the EC50(standard)/EC50(test), positional analysis, Plates 1-5, Test sample is Standard diluted two-fold): 0.516
EC50 STD [1]: 11.0
EC50 STD [2]: 10.9
EC50 STD [3]: 11.2
killing of the cells (treatment of cells followed by irradiation at 400-650 nm): dose-dependent killing of the cells
